Source: patent US12226424B2, “Target protein degradation compounds, their anti-tumor use, their intermediates and use of intermediates” (ShanghaiTech University, priority 2018, dated 2025)
Read-outs that look alike come from different tables or passages of the source.

Legend:
[1] = system: MM1S cells; assay: Half inhibitory concentration (IC50) on BET-expressing tumor cells, CCK-8, MM1S; type: cell-based; conditions: Homo sapiens, MM1.S, 48/72 h, read-out: IC50 (nM)/MM1S cell line
Description: (§1) BET-expressing cells MV-4-11 cells (human B granulocytic leukemia cells), MDA-MB-231 cells (human breast cancer cells), MDA-MB-468 cells (human breast cancer cells), MDA-MB-453 Cells (human breast cancer cells), MM1S cells (myeloma (immunoglobulin A lambda), B lymphoblasts) and SR cells (human large cell immunoblast lymphoma) were purchased from the American Type Culture Collection (ATCC).
(§2) The cells used in this present disclosure were cultured in a 37° C. incubator containing 5% CO2. The complete cell culture medium was RPMI 1640/IMDM/DMEM medium with 10% fetal bovine serum, and the final concentrations of penicillin and streptomycin were 100 U/mL, respectively. All cells were tested negative for mycoplasma with mycoplasma detection kit before the experiment.
(§3) Determination of the Half Inhibitory Concentration (IC50) of PROTAD Compounds on Tumor Cells
(§4) MV-411 cells, MM1S cells and SR cells were seeded in 100 μL IMDM/RPMI1640/DMEM complete medium at a density of 15000/10000 cells/well; MDA-MB-231 cells, MDA-MB-468 cells, and MDA-MB453 cells were seeded in 100 μL IMDM/RPMI1640/DMEM complete medium at a density of 3000/5000 cells/well, respectively. 100 μL of the inoculated cells were treated with 0.5 μL diluted PROTAD compounds of the present disclosure to be tested at 10 successively decreasing concentrations (starting at the highest concentration of 10 μM; 5-fold serial dilutions). After the cells were treated with the tested drugs 48/72 h, the cell viability was determined according to the CCK-8 reagent manual. The negative control was DMSO, and the positive control was a commercial inhibitor. After CCK-8 treatment for 2 h, the value of O.D.450 was measured using a microplate reader.

[2] = system: MV-4-11 cells; assay: Half inhibitory concentration (IC50) on BET-expressing tumor cells, CCK-8, MV-4-11; conditions: Homo sapiens, MV4-11, read-out: IC50 (nM)/MV-4-11 cell line, MV-4-11 cells, 48/72 h, CCK-8
[3] = system: MDA-MB-468 cells; assay: Half inhibitory concentration (IC50) on BET-expressing tumor cells, CCK-8, MDA-MB-468; type: cell-based; conditions: Homo sapiens, 48/72 h, read-out: IC50 (nM)/MDA-MB-468 cell line
Description: as §1, §2, §3, §4

[4] = system: MDA-MB-453 cells; assay: Half inhibitory concentration (IC50) on BET-expressing tumor cells, CCK-8, MDA-MB-453; type: cell-based, human; conditions: 48/72 h, read-out: IC50 (nM)/MDA-MB-453 cell line
Description: as §1, §2, §3, §4

[5] = system: MDA-MB-231 cells; assay: Half inhibitory concentration (IC50) on BET-expressing tumor cells, CCK-8, MDA-MB-231; type: cell-based; conditions: Homo sapiens, 48/72 h, read-out: IC50 (nM)/MDA-MB-231 cell line
Description: as §1, §2, §3, §4

[6] = biological target: T1, ALK protein (Homo sapiens, UniProt Q9UM73); assay: Western-blot half degradation concentration (DC50) of ALK protein in H3122 cells; type: cell-based; conditions: 24 h drug treatment, read-out: DC50 (nM)/ H3122 cell line
Description: (§5) ALK-positive SR cells (human large cell immunoblastic lymphoma) were purchased from the American Type Culture Collection (ATCC); H3122 cells (human non-small cell lung cancer) were from the Shanghai University of Science and Technology Lin Haifan's research group.
(§6) The cells used in this present disclosure were cultured in a 37° C. incubator containing 5% CO2.
(§7) DC50 (drug concentration corresponding to protein degradation to 50%) calculation: according to the gray value of the corresponding Western blotting band after drug treatment, fitting the relationship curve between drug concentration and gray value to calculate the drug concentration range corresponding to half of the gray value.
Target sequence in this assay (Q9UM73 with tags, fused parts or gaps): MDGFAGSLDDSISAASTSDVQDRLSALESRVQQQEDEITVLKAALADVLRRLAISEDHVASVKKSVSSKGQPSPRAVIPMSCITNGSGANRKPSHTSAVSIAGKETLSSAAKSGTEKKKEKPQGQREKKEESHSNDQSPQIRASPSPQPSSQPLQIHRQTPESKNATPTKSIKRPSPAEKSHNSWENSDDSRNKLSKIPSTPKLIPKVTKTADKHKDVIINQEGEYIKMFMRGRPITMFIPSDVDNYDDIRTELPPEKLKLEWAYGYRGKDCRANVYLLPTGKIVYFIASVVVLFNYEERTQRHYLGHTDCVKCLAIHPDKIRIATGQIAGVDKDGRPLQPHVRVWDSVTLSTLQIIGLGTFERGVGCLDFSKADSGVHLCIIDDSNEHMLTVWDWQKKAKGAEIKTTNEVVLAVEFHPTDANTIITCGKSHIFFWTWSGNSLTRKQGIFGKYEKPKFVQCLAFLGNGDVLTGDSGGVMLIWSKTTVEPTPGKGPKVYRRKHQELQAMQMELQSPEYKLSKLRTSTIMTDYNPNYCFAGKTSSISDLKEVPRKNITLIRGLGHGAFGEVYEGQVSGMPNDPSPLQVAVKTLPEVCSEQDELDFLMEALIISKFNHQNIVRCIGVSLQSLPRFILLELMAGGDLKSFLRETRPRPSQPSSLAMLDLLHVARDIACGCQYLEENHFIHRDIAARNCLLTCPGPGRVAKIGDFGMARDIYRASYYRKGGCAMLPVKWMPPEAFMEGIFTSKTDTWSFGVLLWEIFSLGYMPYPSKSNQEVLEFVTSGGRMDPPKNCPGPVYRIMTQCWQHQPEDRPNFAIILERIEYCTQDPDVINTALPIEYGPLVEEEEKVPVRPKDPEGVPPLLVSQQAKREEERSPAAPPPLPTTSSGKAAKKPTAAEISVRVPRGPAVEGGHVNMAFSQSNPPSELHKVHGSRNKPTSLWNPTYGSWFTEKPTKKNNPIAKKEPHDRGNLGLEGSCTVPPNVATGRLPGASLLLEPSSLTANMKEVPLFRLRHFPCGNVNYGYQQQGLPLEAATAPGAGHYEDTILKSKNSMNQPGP

[7] = biological target: T1, ALK protein; assay: Western-blot half degradation concentration (DC50) of ALK protein in SR cells; type: cell-based; conditions: 24 h drug treatment, read-out: DC50 (nM)/ SR cell line
Description: as §5, §6, §7
Target sequence in this assay (Q9UM73 with tags, fused parts or gaps): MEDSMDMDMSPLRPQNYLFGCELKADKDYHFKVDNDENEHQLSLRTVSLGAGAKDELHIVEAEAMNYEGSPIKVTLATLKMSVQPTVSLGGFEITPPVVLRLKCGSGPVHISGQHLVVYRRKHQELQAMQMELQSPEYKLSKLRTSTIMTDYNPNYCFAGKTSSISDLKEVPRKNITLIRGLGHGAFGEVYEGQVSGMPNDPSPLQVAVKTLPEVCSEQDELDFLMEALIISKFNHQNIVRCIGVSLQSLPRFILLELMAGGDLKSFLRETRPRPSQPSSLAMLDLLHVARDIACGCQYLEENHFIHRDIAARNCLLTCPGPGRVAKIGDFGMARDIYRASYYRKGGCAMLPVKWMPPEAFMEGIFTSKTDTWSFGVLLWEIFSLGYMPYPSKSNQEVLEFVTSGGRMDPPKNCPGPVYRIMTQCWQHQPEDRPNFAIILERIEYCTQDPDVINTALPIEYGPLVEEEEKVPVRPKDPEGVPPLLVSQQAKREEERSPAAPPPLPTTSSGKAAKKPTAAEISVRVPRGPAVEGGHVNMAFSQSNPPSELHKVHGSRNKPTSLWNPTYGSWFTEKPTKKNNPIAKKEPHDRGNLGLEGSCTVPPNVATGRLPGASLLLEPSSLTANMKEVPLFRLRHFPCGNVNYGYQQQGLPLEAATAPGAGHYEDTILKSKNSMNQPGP

[8] = system: SR cells; assay: Half inhibitory concentration (IC50) on ALK-positive SR cell proliferation (CCK-8); type: cell-based; conditions: Homo sapiens; SR cells, 72 h drug treatment, CCK-8; read-out: IC50 (nM)/ SR cell line
Method in brief: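 SR cells seeded at 10,000 cells/well in RPMI1640 and treated with PROTAD compounds at 10 concentrations (top 10 μM, 5-fold dilutions) for 72 h at 37° C, 5% CO2. Viability read by CCK-8 (2 h) at OD450; DMSO as negative control.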

[9] = Homo sapiens, MDA-MB-453, MDA-MB-453 cells

SMILES | IC50 [1] [nM] | IC50 [2] [nM] | IC50 [3] [nM] | IC50 [4, 9] [nM] | IC50 ([4]; MDA-MB-453 cells) [nM] | IC50 [5] [nM] | DC50 [6] [nM] | DC50 [7] [nM] | IC50 [8] [nM]
Cc1sc2c(c1C)C(c1ccc(Cl)cc1)=N[C@@H](CC(=O)NCCSc1cccc3c1CN(C1CCC(=O)NC1=O)C3=O)c1nnc(C)n1-2 (stereo partly drawn) [SIAIS171138, 2-((S)-4-(4-chlorophenyl)-2,3,9-trimethyl-6H-thieno[3,2-f][1,2,4]triazolo[4,3-a][1,4]diazepin-6-yl)-N-(2-((2-(2,6-dioxopiperidin-3-yl)-1-oxoisoindolin-4-yl)thio)ethyl)acetamide] | 3.1 | 8.6 ± 9.1 | > 1740 | 2630 | 2800 | > 10000 | – | – | –
COc1cc(N2CCC(NC(=O)CCCCCSc3cccc4c3C(=O)N(C3CCC(=O)NC3=O)C4=O)CC2)ccc1Nc1ncc(Cl)c(Nc2ccccc2P(C)(C)=O)n1 (stereo not shown) [SIAIS164141, N-(1-(4-((5-chloro-4-((2-(dimethylphosphoryl)phenyl)amino)pyrimidin-2-yl)amino)-3-methoxyphenyl)piperidin-4-yl)-6-((2-(2,6-dioxopiperidin-3-yl)-1,3-dioxoisoindolin-4-yl)thio)hexanamide] | – | – | – | – | – | – | 50 | 1 to 50 | 3.2 ± 2.4
Cc1sc2c(c1C)C(c1ccc(Cl)cc1)=N[C@@H](CC(=O)NCCCCCCCSc1cccc3c1CN(C1CCC(=O)NC1=O)C3=O)c1nnc(C)n1-2 (stereo partly drawn) [SIAIS171144, 2-((S)-4-(4-chlorophenyl)-2,3,9-trimethyl-6H-thieno[3,2-f][1,2,4]triazolo[4,3-a][1,4]diazepin-6-yl)-N-(7-((2-(2,6-dioxopiperidin-3-yl)-1-oxoisoindolin-4-yl)thio)heptyl)acetamide] | 0.7 | 0.9 ± 0.8 | 9.6 ± 2.9 | 52.3 | 63.9 | 55 ± 31 | – | – | –
COc1cc(N2CCC(N3CCN(C(=O)CCCCCCSc4cccc5c4C(=O)N(C4CCC(=O)NC4=O)C5=O)CC3)CC2)ccc1Nc1ncc(Cl)c(Nc2ccccc2P(C)(C)=O)n1 (stereo not shown) [SIAIS164067, 4-((7-(4-(1-(4-((5-chloro-4-((2-(dimethylphosphoryl)phenyl)amino)pyrimidin-2-yl)amino)-3-methoxyphenyl)piperidin-4-yl)piperazin-1-yl)-7-oxoheptyl)thio)-2-(2,6-dioxopiperidin-3-yl)isoindoline-1,3-dione] | – | – | – | – | – | – | 11 | 4.1 | 5.7 ± 3.9
COc1cc(N2CCC(N3CCN(C(=O)CSc4cccc5c4C(=O)N(C4CCC(=O)NC4=O)C5=O)CC3)CC2)ccc1Nc1ncc(Cl)c(Nc2ccccc2P(C)(C)=O)n1 (stereo not shown) [SIAIS164062, 4-((2-(4-(1-(4-((5-chloro-4-((2-(dimethylphosphoryl)phenyl)amino)pyrimidin-2-yl)amino)-3-methoxyphenyl)piperidin-4-yl)piperazin-1-yl)-2-oxoethyl)thio)-2-(2,6-dioxopiperidin-3-yl)isoindoline-1,3-dione] | – | – | – | – | – | – | 13 | 6 | 11.6 ± 6.2
COc1cc(N2CCC(N3CCN(C(=O)CCSc4cccc5c4C(=O)N(C4CCC(=O)NC4=O)C5=O)CC3)CC2)ccc1Nc1ncc(Cl)c(Nc2ccccc2P(C)(C)=O)n1 (stereo not shown) [SIAIS164063, 4-((3-(4-(1-(4-((5-chloro-4-((2-(dimethylphosphoryl)phenyl)amino)pyrimidin-2-yl)amino)-3-methoxyphenyl)piperidin-4-yl)piperazin-1-yl)-3-oxopropyl)thio)-2-(2,6-dioxopiperidin-3-yl)isoindoline-1,3-dione] | – | – | – | – | – | – | 500 | 500 | 15.7 ± 9.8
Cc1sc2c(c1C)C(c1ccc(Cl)cc1)=N[C@@H](CC(=O)NCCCCCCSc1cccc3c1C(=O)N(C1CCC(=O)NC1=O)C3=O)c1nnc(C)n1-2 (stereo partly drawn) [SIAIS171039, 2-((S)-4-(4-chlorophenyl)-2,3,9-trimethyl-6H-thieno[3,2-f][1,2,4]triazolo[4,3-a][1,4]diazepin-6-yl)-N-(6-((2-(2,6-dioxopiperidin-3-yl)-1,3-dioxoisoindolin-4-yl)thio)hexyl)acetamide] | 0.82 | 2.7 ± 2.5 | 92 ± 43 | 167 | 162 | 98 ± 82 | – | – | –
COc1cc(N2CCC(N3CCN(C(=O)CCCCCSc4cccc5c4C(=O)N(C4CCC(=O)NC4=O)C5=O)CC3)CC2)ccc1Nc1ncc(Cl)c(Nc2ccccc2P(C)(C)=O)n1 (stereo not shown) [SIAIS164065, 4-((6-(4-(1-(4-((5-chloro-4-((2-(dimethylphosphoryl)phenyl)amino)pyrimidin-2-yl)amino)-3-methoxyphenyl)piperidin-4-yl)piperazin-1-yl)-6-oxohexyl)thio)-2-(2,6-dioxopiperidin-3-yl)isoindoline-1,3-dione] | – | – | – | – | – | – | 173 | 5.2 | 2.9 ± 2.7
COc1cc(N2CCC(N3CCN(C(=O)CCCCCCSc4cccc5c4CN(C4CCC(=O)NC4=O)C5=O)CC3)CC2)ccc1Nc1ncc(Cl)c(Nc2ccccc2P(C)(C)=O)n1 (stereo not shown) [SIAIS219072, 3-(4-((7-(4-(1-(4-((5-chloro-4-((2-(dimethylphosphoryl)phenyl)amino)pyrimidin-2-yl)amino)-3-methoxyphenyl)piperidin-4-yl)piperazin-1-yl)-7-oxoheptyl)thio)-1-oxoisoindolin-2-yl)piperidine-2,6-dione] | – | – | – | – | – | – | – | 0.1 to 10 | 0.8 ± 0.5
COc1cc(N2CCC(N3CCN(C(=O)CCCSc4cccc5c4C(=O)N(C4CCC(=O)NC4=O)C5=O)CC3)CC2)ccc1Nc1ncc(Cl)c(Nc2ccccc2P(C)(C)=O)n1 (stereo not shown) [SIAIS164064, 4-((4-(4-(1-(4-((5-chloro-4-((2-(dimethylphosphoryl)phenyl)amino)pyrimidin-2-yl)amino)-3-methoxyphenyl)piperidin-4-yl)piperazin-1-yl)-4-oxobutyl)thio)-2-(2,6-dioxopiperidin-3-yl)isoindoline-1,3-dione] | – | – | – | – | – | – | 49 | 1.1 | 4.4 ± 2.5
COc1cc(N2CCC(N3CCN(C(=O)CCCCSc4cccc5c4CN(C4CCC(=O)NC4=O)C5=O)CC3)CC2)ccc1Nc1ncc(Cl)c(Nc2ccccc2P(C)(C)=O)n1 (stereo not shown) [SIAIS219070, 3-(4-((5-(4-(1-(4-((5-chloro-4-((2-(dimethylphosphoryl)phenyl)amino)pyrimidin-2-yl)amino)-3-methoxyphenyl)piperidin-4-yl)piperazin-1-yl)-5-oxopentyl)thio)-1-oxoisoindolin-2-yl)piperidine-2,6-dione] | – | – | – | – | – | – | – | 0.1 to 10 | 0.5 ± 0.3
COc1cc(N2CCC(N3CCN(C(=O)CCCCSc4cccc5c4C(=O)N(C4CCC(=O)NC4=O)C5=O)CC3)CC2)ccc1Nc1ncc(Cl)c(Nc2ccccc2P(C)(C)=O)n1 (stereo not shown) [SIAIS164066, 4-((5-(4-(1-(4-((5-chloro-4-((2-(dimethylphosphoryl)phenyl)amino)pyrimidin-2-yl)amino)-3-methoxyphenyl)piperidin-4-yl)piperazin-1-yl)-5-oxopentyl)thio)-2-(2,6-dioxopiperidin-3-yl)isoindoline-1,3-dione] | – | – | – | – | – | – | 11 | 5.6 | 4.2 ± 2.9
COc1cc(N2CCN(C(=O)CCCCCSc3cccc4c3C(=O)N(C3CCC(=O)NC3=O)C4=O)CC2)ccc1Nc1ncc(Cl)c(Nc2ccccc2P(C)(C)=O)n1 (stereo not shown) [SIAIS1197121, 4-((6-(4-(4-((5-chloro-4-((2-(dimethylphosphoryl)phenyl)amino)pyrimidin-2-yl)amino)-3-methoxyphenyl)piperazin-1-yl)-6-oxohexyl)thio)-2-(2,6-dioxopiperidin-3-yl)isoindoline-1,3-dione] | – | – | – | – | – | – | 500 | 50 to 500 | 7.4 ± 4.8
